≈ marks a conversion by molar mass, not a printed value. Where “and” joins values, the source holds several entries; their conditions need not be identical. Equal values may be shown once. Read-outs that look alike come from different tables or passages of the source.
Legend:
[1] = system: A-431 human pudendal epithelial squamous cancer cells; experiment: Cell proliferation inhibiting effect, MTT (Example 5); assay type: cell-based; conditions: A-431, 48-hours incubation
Protocol: (§1) K-562, human chronic myelogenic leukemia cells were cultured in […] culture medium (containing 10% bovine fetus serum) and A-431 human pudendal epithelial squamous cancer cells were cultured in DMEM culture medium, containing 10% bovine fetus serum. To these a continuous dilution series of the (+)-phenylahistin obtained in EXAMPLE 1 was added. After 48-hours incubation, a MTT reagent was added to measure growth.

[2] = system: K-562, human chronic myelogenic leukemia cells; experiment: as above; assay type: cell-based; conditions: K562, K-562, 48-hours incubation
Protocol: as §1

WiDr (colon) = experiment: Antiproliferative activity, MTT assay (Table 7); assay type: cell-based; conditions: Homo sapiens, optical purity over 99.8%
Protocol: (§2) In order to examine detailed biological activity, especially antitumor activity of both (+)- and (−)-phenylahistin, resolution of (+)- and (−)-phenylahistin using chiral HPLC was conducted. By repeating chiral separation twice or three times, each enantiomer with an optical purity over 99.8% was obtained, and each enantiomer was recrystallizes from ethanol-hexane mixture.
(§3) Antitumor activity of (+)- and (−)-phenylahistin was examined against seven human cancer cell lines including A431, WiDr, TE-671, Hela, MCF7, A-549 and K562 cells.

TE-671 (CNS) = experiment: Antiproliferative activity, MTT assay (Table 7); assay type: cell-based; conditions: Homo sapiens, TE-671, TE-671 (CNS), optical purity over 99.8%
Protocol: as §2, §3

Hela (ovary) = experiment: Antiproliferative activity, MTT assay (Table 7); assay type: cell-based; conditions: Homo sapiens, optical purity over 99.8%
Protocol: as §2, §3

MCF7 (breast) = experiment: Antiproliferative activity, MTT assay (Table 7); assay type: cell-based; conditions: Homo sapiens, optical purity over 99.8%
Protocol: as §2, §3

K562 (leukemia) = experiment: Antiproliferative activity, MTT assay (Table 7); assay type: cell-based; conditions: Homo sapiens, optical purity over 99.8%
Protocol: as §2, §3

A-431 (damal) = experiment: Antiproliferative activity, MTT assay (Table 7); assay type: cell-based; conditions: Homo sapiens, optical purity over 99.8%
Protocol: as §2, §3

A549 (lung) = experiment: Antiproliferative activity, MTT assay (Table 7); assay type: cell-based; conditions: Homo sapiens, optical purity over 99.8%
Protocol: as §2, §3

[3] = system: Microtubule protein from bovine brain; experiment: Microtubule protein polymerization assay (turbidity); assay type: biochemical
Protocol: Microtubule protein was prepared from bovine brain tissue by two cycles of assembly and disassembly according to the method of Tiwari, S. C. et al. Anal. Biochem, (1993), 215, 96-103. Tubulin was purified from microtubule protein by phosphocellulose chromatography see Algaier, J. et al. Biochim. Biophys. Acta, (1988), 954, 235-43, and tubulin purity was evaluated by polyacrylamide gel electrophoresis, as in Laemmli, U.K., Nature, (1970), […], 680-85. […] Protein concentrations were determined using the Coomassie® Protein Assay Reagent from Pierce (Rockford, Ill.).
Polymerization of microtubule protein was monitored by an increase in turbidity at 37° C. in microtubule assembly buffer containing 100 mM MES, 0.5 mM MgCl2, 1 mM EGTA and 1 mM GTP. See Johnson, K. A. et al., J. Mol. Biol., (1977), 117, 1-31. Polymerization of purified tubulin was measured using the same method except the microtubule assembly buffer contained 4 M glycerol. See Lee, J. C. et al., Biochemistry, (1975), 14, 5183-87. Microtubule protein and tubulin polymerization was initiated by a temperature shift from 0° C. to 37° C. and turbidity was measured on a DU-20 thermocontrolled spectrophotometer from Beckman (Fullerton, Calif.) at 360 nm. Drugs were dissolved in dimethyl sulfoxide (DMSO), which was used in all experiments at a final concentration of 2% (v/v).
For this example, the microtubule protein polymerization assay was performed as follows. Microtubule protein was prepared from bovine brain tissue by two cycles of assembly and disassembly. Polymerization of microtubule protein was monitored by an increase in turbidity at 37° C. in microtubule assembly buffer containing 100 mM MES, 0.5 mM MgCl2, 1 mM EGTA and 1 mM GTP. The polymerization of microtubule protein was initiated by a temperature shift from 0° C. to 37° C. Turbidity was measured on a thermo-controlled spectrophotometer (Beckman DU-20, Fullerton, Calif.) at 360 nm. Compounds were dissolved in DMSO, which was used in all experiments at a final concentration of 2% (v/v).

P388 cells [4] = experiment: P388 proliferation, Alamar Blue assay; assay type: cell-based, murine; conditions: Mus musculus, P388
Protocol: For this example, the Alamar Blue™ assay was performed as follows. Exponentially growing P388 cells were seeded into 96-well tissue culture plates (5×10^3 cells/100 μl/well) and cultured in RPMI 1640 medium supplemented with 10% fetal bovine serum for 16 h. Compounds (DMSO solution) were then added to each well at various concentrations, and the cells were cultured for an additional 48 h. Living cells were counted using Alamar Blue™ (BioSource International, Camarillo, Calif.), according to the method of Ahmed, S. A. et al., J. Immunol. Methods, 170, 211 (1994).

P388 cells [5] = experiment: Cell cycle progression of P388, flow cytometer; assay type: cell-based, murine; conditions: 1×10^−5 M, 8-hour incubation; 97.8% e.e.
Protocol: The effect of phenylahistin on the cell cycle progression of P388 cells was also investigated using a flow cytometer, as described in Krishan, A., J. Cell Biol. (1975) 66, 188-193. P388 cells in the log growth phase were seeded into flasks and cultured for 14 hours, and then various concentrations of phenylahistin were added to each flask. After an 8-hour incubation, the cells were harvested and fixed with 50% MeOH at −20° C. overnight. The cells were washed with 30% MeOH and then with 10 mM PBS, and treated with 50 :g/ml propidium iodide at 4° C. for 2 hours. DNA histograms were obtained using a flow cytometer (Cyto ACE-300:JASCO).

[6] = system: P388 murine leukemia cells; experiment: Cytotoxic effects of the phenylahistin enantiomers (Example 8); assay type: cell-based; conditions: Mus musculus, (−) 92.2% e.e., (+) 97.8% e.e.
Source text: The cytotoxic effects of the enantiomers of phenylahistin on P388 murine leukemia cells were examined. […] Judging from the content of (−)-phenylahistin in (+)-phenylahistin, (+)-phenylahistin was considered to have relatively low cytotoxicity to P388 cells.

[7] = system: seven human cancer cell lines; experiment: Antiproliferative activity, MTT assay, all lines of Table 7; assay type: cell-based
Protocol: as §2, §3

Jurkat cells [8] = experiment: Cytotoxicity in Jurkat cells; conditions: Homo sapiens, read-out: Cytotoxicity Potency IC50
Jurkat cells [9] = system: Jurkat cells
[10] = system: HL-60/MX-2 (Mitoxantrone-Resistant) human acute promyelocytic leukemia cell line; experiment: Drug resistant cell line pair, cytotoxicity; assay type: cell-based
Source text: HL-60 (Mitoxantrone-Sensitive) and HL-60/MX-2 (Mitoxantrone-Resistant) This cell line is considered to have atypical drug resistance properties with altered topoisomerase II catalytic activity without overexpression of P-glycoprotein.

[11] = system: MES-SA DX (Taxol Resistant) human uterine sarcoma tumor cell line; experiment: Drug resistant cell line pair, cytotoxicity; assay type: cell-based
Source text: MES-SA (Taxol Sensitive) and MES-SA DX (Taxol Resistant). This cell line expresses elevated mdr-1 mRNA and P-glycoprotein (an extrusion pump mechanism). Pretreatment with cyclosporin-A (CsA) blocks P-glycoprotein and reinstates activity in the resistant cell line for those compounds for which the resistance is due to elevated P-glycoprotein.

[12] = system: HL-60 (Mitoxantrone-Sensitive) human acute promyelocytic leukemia cell line; experiment: Drug resistant cell line pair, cytotoxicity; assay type: cell-based; conditions: Homo sapiens; HL-60 Sensitive
Source text: 2) Human Acute Promyelocytic Leukemia Cell Line Pair: HL-60 (Mitoxantrone-Sensitive) and HL-60/MX-2 (Mitoxantrone-Resistant)
This cell line is considered to have atypical drug resistance properties with altered topoisomerase II catalytic activity without overexpression of P-glycoprotein.

`C=CC(C)(C)c1[nH]cnc1/C=C1\NC(=O)[C@@H](Cc2ccccc2)NC1=O` [(+)-phenylahistin] showed an IC50 [1] of 2.9 µg/mL (≈ 8.28 µM), an IC50 [2] of 13.3 µg/mL (≈ 38 µM) and an IC50 (WiDr (colon)) of 8.5 µM. For the same compound, the IC50 (TE-671 (CNS)) was 130 µM, the IC50 (Hela (ovary)) was 10 µM and the IC50 (MCF7 (breast)) was 11 µM. For the same compound, the IC50 (K562 (leukemia)) was 10 µM, the IC50 (A-431 (damal)) was 20 µM and the IC50 (A549 (lung)) was 30 µM. For the same compound, the “inhibition percentage at 200 μM, microtubule protein polymerization” value ([3]; 200 μM) was 15%, the microtubule assembly ([3]; concentrations up to 200 μM) was “did not affect microtubule assembly” and the IC50 ([3]; microtubule protein 1.5 mg/mL (Table 9), read-out: IC50 Microtubule Protein polymerization) was > 200 µM. The IC50 ([3]; microtubule protein 1.5 mg/ml (Table 4), read-out: IC50 for Microtubule Protein Polymerization) was > 200 µM, the IC50 (P388 cells [4]; Alamar Blue assay (Table 4), read-out: IC50 for P388 Proliferation) was 10 µM and the IC50 (P388 cells [4]; means (±SEM) of three experiments (Table 9), read-out: IC50 P388 proliferation) was 10 µM. The “cell cycle inhibitory activity (G2/M)” value (P388 cells [5]) was “no effect”, the IC50 [6] was 38 µM and the “fold less activity than (−)-PLH” value [7] was 33 to 100 fold.
In the case of `O=C1c2c(O)ccc(O)c2C(=O)c2c(NCCNCCO)ccc(NCCNCCO)c21` [Mitoxantrone, reference compound], the IC50 (Jurkat cells [8]) is reported as 0.041 µM, the “Cytotoxicity Efficacy % Cell Death” value (Jurkat cells [9]) is reported as 99% and the “Ratio to Sensitive” value ([10]; HL-60 Resistant versus Sensitive) is reported as 24 and 24.1. The IC50 ([10]; Homo sapiens, HL60/MX2, HL-60 Resistant) was 4.87 µM, the “reduced susceptibility of the MES-SA DX cell line” value [11] was 20 fold and the IC50 [12] was 0.202 µM.
